In PubChem BioAssay AID266 (DTP/NCI, 2004):
“And” between values parts separate entries of the source, which are not always exact repeats. Equal entries are not always repeated. Records with an inconclusive call do not appear.

System: Nude mice, LX-1 lung xenograft intrarenal, tumor weight T/C
Assay: NCI In Vivo Anticancer Drug Screen. Data for tumor model Human Lung LX-1 Xenograft (intrarenal inoculation) in NU/NU BALB/C (nude) mice
Conditions: endpoint: mean tumor weight change, higher = larger tumour
Description: The antitumor activity of compounds was measured in mice bearing transplantable tumors. Survival or tumor size were measured and the results are expressed as the measurement made in the treated group (T) divided by the measurement made in the vehicle treated control group (C). The tumor model used in this assay is Human Lung LX-1 Xenograft (intrarenal inoculation) in NU/NU BALB/C (nude) mice

[1] = dose: 50.0 mg/kg/injection, schedule: Q01DX010 (sc), vehicle: Klucel (hydroxypropylcellulose) (HPC)
[2] = dose: 100.0 mg/kg/injection, schedule: Q01DX010 (sc), vehicle: Klucel (hydroxypropylcellulose) (HPC)
[3] = dose: 200.0 mg/kg/injection, schedule: Q01DX010 (sc), vehicle: Klucel (hydroxypropylcellulose) (HPC)
[4] = dose: 300.0 mg/kg/injection, schedule: Q04DX003 (sc), vehicle: saline with Tween-80
[5] = dose: 600.0 mg/kg/injection, schedule: Q04DX003 (sc), vehicle: saline with Tween-80
[6] = dose: 1200.0 mg/kg/injection, schedule: Q04DX003 (sc), vehicle: saline with Tween-80
[7] = dose: 2400.0 mg/kg/injection, schedule: Q04DX003 (sc), vehicle: saline with Tween-80

C/C(=C\c1ccccc1)[N+](=O)[O-]
T/C [1]: 96 % of control
T/C [2]: 97 % of control
T/C [3]: 15 % of control

CC(C)C(N)C(=O)Nc1nncs1 (stereo not given)
T/C (dose: 150.0 mg/kg/injection, schedule: Q04DX003 (sc), vehicle: saline): 102 % of control
T/C (dose: 300.0 mg/kg/injection, schedule: Q04DX003 (sc), vehicle: saline): 74 % of control
T/C (dose: 600.0 mg/kg/injection, schedule: Q04DX003 (sc), vehicle: saline): 78 % of control

Nc1nc(=S)c2[nH]cnc2[nH]1
T/C (dose: 0.4 mg/kg/injection, schedule: Q01DX010 (sc), vehicle: Klucel (hydroxypropylcellulose) (HPC)): 105 % of control
T/C (dose: 1.6 mg/kg/injection, schedule: Q01DX010 (sc), vehicle: Klucel (hydroxypropylcellulose) (HPC)): 76 % of control
T/C (dose: 3.2 mg/kg/injection, schedule: Q01DX010 (sc), vehicle: Klucel (hydroxypropylcellulose) (HPC)): 58 % of control

O=S(=O)(CCl)OCCCl
T/C (dose: 50.0 mg/kg/injection, schedule: Q04DX003 (sc), vehicle: saline with Tween-80): 122 % of control
T/C (dose: 100.0 mg/kg/injection, schedule: Q04DX003 (sc), vehicle: saline with Tween-80): 101 % of control

C=CC(C)NC(=S)NNC(=S)NC (stereo not given)
T/C (dose: 300.0 mg/kg/injection, schedule: Q04DX003 (sc), vehicle: saline + alcohol): 115 % of control
T/C (dose: 600.0 mg/kg/injection, schedule: Q04DX003 (sc), vehicle: saline + alcohol): 87 % of control
T/C (dose: 1200.0 mg/kg/injection, schedule: Q04DX003 (sc), vehicle: saline + alcohol): 87 % of control
T/C (dose: 2400.0 mg/kg/injection, schedule: Q04DX003 (sc), vehicle: saline + alcohol): 78 % of control

CC[C@]1(O)C[C@H]2CN(CCc3c([nH]c4ccccc34)[C@@](C(=O)OC)(c3cc4c(cc3OC)N(C=O)[C@H]3[C@@](O)(C(=O)OC)[C@H](OC(C)=O)[C@]5(CC)C=CCN6CC[C@]43[C@@H]65)C2)C1
T/C (dose: 0.13 mg/kg/injection, schedule: Q01DX010 (sc), vehicle: saline): 69 % of control
T/C (dose: 0.25 mg/kg/injection, schedule: Q01DX010 (sc), vehicle: saline): 20 % of control
T/C (dose: 0.5 mg/kg/injection, schedule: Q01DX010 (sc), vehicle: saline): 1 % of control

COc1ccc(C(=O)/C(Br)=C/C(=O)O)cc1
T/C (dose: 25.0 mg/kg/injection, schedule: Q01DX010 (sc), vehicle: saline): 194 % of control
T/C (dose: 50.0 mg/kg/injection, schedule: Q01DX010 (sc), vehicle: saline): 158 % of control

CN1C(=O)C(=Cc2ccc(O)cc2)C(=O)N(C)C1=O
T/C [4]: 114 % of control
T/C [5]: 110 % of control
T/C [6]: 87 % of control
T/C [7]: 68 % of control

CCOC(=O)N(C)N=NC
T/C (dose: 7.5 mg/kg/injection, schedule: Q04DX003 (ip), vehicle: saline): 57 % of control
T/C (dose: 15.0 mg/kg/injection, schedule: Q04DX003 (ip), vehicle: saline): 51 % of control
T/C (dose: 60.0 mg/kg/injection, schedule: Q04DX003 (ip), vehicle: saline): 14 % of control and 24 % of control

O=C(NO)c1ccccc1
T/C [2]: 120 % of control
T/C [3]: 150 % of control

O=S(CCCl)CCCl
T/C (dose: 25.0 mg/kg/injection, schedule: Q04DX003 (sc), vehicle: Klucel (hydroxypropylcellulose) (HPC)): 81 % of control
T/C (dose: 50.0 mg/kg/injection, schedule: Q04DX003 (sc), vehicle: Klucel (hydroxypropylcellulose) (HPC)): 76 % of control

c1cc(OCC2CO2)ccc1OCC1CO1 (stereo not given)
T/C [4]: 172 % of control
T/C [5]: 118 % of control
T/C [6]: 114 % of control
T/C [7]: 88 % of control

C/C(=N\NC(=S)N1CCN(c2ccccn2)CC1)c1ccccn1
T/C (dose: 37.5 mg/kg/injection, schedule: Q04DX003 (sc), vehicle: water): 106 % of control
T/C (dose: 75.0 mg/kg/injection, schedule: Q04DX003 (sc), vehicle: water): 102 % of control

CC1=C/C(O)CC(=O)Cc2nc(co2)C(=O)N2CCC=C2C(=O)OC(C(C)C)C(C)/C=C\C(=O)NC/C=C\1 (stereo not given)
T/C (dose: 300.0 mg/kg/injection, schedule: Q04DX003 (sc), vehicle: Klucel (hydroxypropylcellulose) (HPC)): 102 % of control
T/C (dose: 600.0 mg/kg/injection, schedule: Q04DX003 (sc), vehicle: Klucel (hydroxypropylcellulose) (HPC)): 90 % of control
T/C (dose: 1200.0 mg/kg/injection, schedule: Q04DX003 (sc), vehicle: Klucel (hydroxypropylcellulose) (HPC)): 69 % of control
T/C (dose: 2400.0 mg/kg/injection, schedule: Q04DX003 (sc), vehicle: Klucel (hydroxypropylcellulose) (HPC)): 82 % of control

CC(=O)OCC1(C)NC(=O)c2ccccc2O1 (stereo not given)
T/C [4]: 86 % of control
T/C [6]: 91 % of control

S=P(N1CC1)(N1CC1)N1CC1
T/C (dose: 4.0 mg/kg/injection, schedule: Q01DX010 (sc), vehicle: saline): 77 % of control

CC(=O)C(=O)O.CC(=O)C(=O)O.[NH-]C1CCCCC1[NH-].[Pt+2] (stereo not given)
T/C (dose: 9.37 mg/kg/injection, schedule: Q04DX003 (sc), vehicle: other): 67 % of control
T/C (dose: 18.75 mg/kg/injection, schedule: Q04DX003 (sc), vehicle: other): 76 % of control
T/C (dose: 37.5 mg/kg/injection, schedule: Q04DX003 (sc), vehicle: other): 80 % of control

CN(C)N=Nc1ccc(C(N)=O)cc1
T/C (dose: 200.0 mg/kg/injection, schedule: Q04DX003 (ip), vehicle: saline with Tween-80): -20 % of control and -13 % of control

CC1=C2CC(C)(C)/C=C\C(=O)/C(C)=C\C3=C[C@H](C)C[C@]3(O2)C1=O
T/C (dose: 6.0 mg/kg/injection, schedule: Q01DX010 (sc), vehicle: Klucel (hydroxypropylcellulose) (HPC)): 81 % of control
T/C (dose: 12.0 mg/kg/injection, schedule: Q01DX010 (sc), vehicle: Klucel (hydroxypropylcellulose) (HPC)): 168 % of control
T/C (dose: 24.0 mg/kg/injection, schedule: Q01DX010 (sc), vehicle: Klucel (hydroxypropylcellulose) (HPC)): 236 % of control
T/C [1]: 33 % of control

CC(=O)Oc1[nH]c(=O)c2cccc3c2c1CCC3
T/C [4]: 62 % of control
T/C [5]: 68 % of control
T/C [6]: 90 % of control
T/C [7]: 83 % of control

BrCCC1(CCBr)CCCCC1
T/C (dose: 300.0 mg/kg/injection, schedule: Q04DX003 (sc), vehicle: water): 104 % of control
T/C (dose: 600.0 mg/kg/injection, schedule: Q04DX003 (sc), vehicle: water): 89 % of control
T/C (dose: 1200.0 mg/kg/injection, schedule: Q04DX003 (sc), vehicle: water): 85 % of control

N#CCCSC(=S)C1CCCC1=N (stereo not given)
T/C [4]: 84 % of control
T/C [5]: 79 % of control
T/C [6]: 102 % of control
T/C [7]: 91 % of control

CC(=O)Nc1cscc1NC(C)=O
T/C (dose: 150.0 mg/kg/injection, schedule: Q04DX003 (sc), vehicle: saline with Tween-80): 89 % of control
T/C [4]: 121 % of control
T/C [5]: 111 % of control
T/C [6]: 110 % of control

C[C@]12CCC(=O)C(O)=C1CC[C@@H]1[C@@H]2CC[C@]2(C)C(=O)CC[C@@H]12
T/C (dose: 150.0 mg/kg/injection, schedule: Q04DX003 (ip), vehicle: Klucel (hydroxypropylcellulose) (HPC)): 61 % of control
T/C (dose: 300.0 mg/kg/injection, schedule: Q04DX003 (ip), vehicle: Klucel (hydroxypropylcellulose) (HPC)): 99 % of control
T/C (dose: 600.0 mg/kg/injection, schedule: Q04DX003 (ip), vehicle: Klucel (hydroxypropylcellulose) (HPC)): 89 % of control

Cc1ccoc1
T/C (dose: 50.0 mg/kg/injection, schedule: Q01DX010 (ip), vehicle: saline with Tween-80): 109 % of control
T/C (dose: 100.0 mg/kg/injection, schedule: Q01DX010 (ip), vehicle: saline with Tween-80): 93 % of control
T/C (dose: 200.0 mg/kg/injection, schedule: Q01DX010 (ip), vehicle: saline with Tween-80): 163 % of control
T/C (dose: 400.0 mg/kg/injection, schedule: Q01DX010 (ip), vehicle: saline with Tween-80): 80 % of control

CC(=O)OC1C(O)C(C)OC(OC2C(OC(=O)C3CCC4C(C3)OC3(CC(OC(=O)/C=C/c5ccccc5)C(C)CO3)C43CO3)OC(C)C(O)C2OC(C)=O)C1O (stereo not given)
T/C (dose: 37.5 mg/kg/injection, schedule: Q04DX003 (sc), vehicle: distilled water + Tween-80): 121 % of control
T/C (dose: 75.0 mg/kg/injection, schedule: Q04DX003 (sc), vehicle: distilled water + Tween-80): 63 % of control

OC1(CSc2ccccc2)CCCCC1
T/C (dose: 200.0 mg/kg/injection, schedule: Q04DX003 (sc), vehicle: saline with Tween-80): 75 % of control
T/C (dose: 400.0 mg/kg/injection, schedule: Q04DX003 (sc), vehicle: saline with Tween-80): 85 % of control
T/C (dose: 800.0 mg/kg/injection, schedule: Q04DX003 (sc), vehicle: saline with Tween-80): 82 % of control
T/C (dose: 1600.0 mg/kg/injection, schedule: Q04DX003 (sc), vehicle: saline with Tween-80): 90 % of control
